According to patent US20250144054A1, “SMALL MOLECULE STAT3 INHIBITOR FOR TREATING TRIPLE NEGATIVE BREAST CANCER” (UNIVERSITY OF MARYLAND, BALTIMORE, priority 2022, published 2025):
Values joined by “and” are separate entries in the source; they are usually repeats but may differ in a detail not shown here. Identical values can stand only once.

Tested on: STAT3
Experiment: Western blot of P-STAT3 (Y705), STAT3, Cyclin D1, Cleaved Caspase-3 in MDA-MB-231 cells
Type: cell-based, human
Settings: MDA-MB-231, overnight
Protocol: (A) MDA-MB-231, SUM159, and 4T1 cell lines were treated with DMSO or LLL12B overnight and the expression levels of P-STAT3 (Y705), STAT3, Cyclin D1, and Cleaved Caspase-3 were analyzed by Western blot. GAPDH served as a protein loading control. (B) MDA-MB-231 cells were treated with DMSO or C188-9 overnight and the expression levels of P-STAT3 (Y705), STAT3, Cyclin D1, and Cleaved Caspase-3 were analyzed by Western blot. (C) MDA-MB-231, SUM159, and 4T1 cells were seeded in a 96-well plate and treated with DMSO or LLL12B for 5 hours and a Caspase-3/7 Fluorescence Assay Kit was used to detect the activation of caspase-3/7. (D) MDA-MB-231, SUM159, and 4T1 cell lines were treated with DMSO or LLL12B for 8-12 hours, and flow cytometry was performed to analyze annexin V and PI staining. The quantification of apoptotic cells was shown in the right panel. ** P<0.01, *** P<0.001 and ****P<0.0001.
SiRNA and transfection. STAT3 siRNA and Negative Control siRNA (Cell Signaling Technology, Danvers, MA, USA) were used to knock down STAT3 in MDA-MB-231, SUM159, and 4T1 cell lines. Cells were transfected with STAT3 siRNA or Negative Control siRNA using Lipofectamine RNAiMAX (Invitrogen, Carlsbad, CA, USA) according to the manufacturer's instructions. After 72 hours, cell viability was examined by MTT cell viability assay, and the transfection efficiency was examined by western blot.
Western blot. Cells were collected and total protein was extracted using cell lysis buffer (Cell Signaling Technology, Danvers, MA, USA). Protein concentration was determined using the Pierce BCA Protein Assay Kit (Thermo Fisher Scientific, Waltham, MA, USA) according to the manufacturer's instructions. Equal amounts of protein were separated by 10% SDS-PAGE gels and transferred to PVDF membranes. Membranes were blocked in 5% non-fat milk at room temperature and probed with specific antibodies P-STAT3 (Y705), STAT3, Cyclin D1, Cleaved Caspase-3, P-STAT1 (Y701), STAT1, P-ERK, ERK or GAPDH (1:1000, Cell Signaling Technology, Danvers, MA, USA) at 4° C. overnight. The blots were visualized using SuperSignal™ West Femto Maximum Sensitivity Substrate (Thermo Fisher Scientific, Waltham, MA, USA) and an Amersham Imager 680 (GE Healthcare Life Sciences, Marlborough, MA, USA) after incubating with horseradish peroxidase (HRP)-conjugated anti-rabbit secondary antibody (1:5000, Cell Signaling Technology, Danvers, MA, USA).

COc1ccc(S(=O)(=O)Nc2cc(-c3c(O)ccc4ccccc34)c(O)c3ccccc23)cc1 [C188-9, reference compound]
concentration that inhibited P-STAT3 and Cyclin D1 in Western blot: 25 µM and 50 µM
